Results from ChEMBL document CHEMBL1201862, “PubChem BioAssay data set” (2004).
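The compound was tested at five concentrations on cells cultured in 96-well plates, with a 48-hour exposure period. GI50 is the concentration that inhibits growth by half.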 Active and inactive are the calls of the source. Cut-off read from the data, not from the text of the source: active = GI50 up to about 1.1 µM and inactive = higher.

What was measured:
Assay in all cases: NCI anticancer screen, dose series, 48 h
[1] = system: HOP-92
[2] = system: KM12
[3] = system: OVCAR-8
[4] = system: SNB-75
[5] = system: IGROV-1
[6] = system: COLO 205
[7] = system: A498
[8] = system: OVCAR-5
[9] = system: Hs-578T
[10] = system: 786-0
[11] = system: DU-145
[12] = system: SF-268
[13] = system: Malme-3M
[14] = system: NCI-H522
[15] = system: SW-620
[16] = system: U-251
[17] = system: SNB-19
[18] = system: CCRF-CEM
[19] = system: HCC 2998
[20] = system: HL-60

| SMILES | GI50 [1] | GI50 [2] | GI50 [3] | GI50 [4] | GI50 [5] | GI50 [6] | GI50 [7] | GI50 [8] | GI50 [9] | GI50 [10] | GI50 [11] | GI50 [12] | GI50 [13] | GI50 [14] | GI50 [15] | GI50 [16] | GI50 [17] | GI50 [18] | GI50 [19] | GI50 [20] |
| --- | --- | --- | --- | --- | --- | --- | --- | --- | --- | --- | --- | --- | --- | --- | --- | --- | --- | --- | --- | --- |
| CCc1ncc(CO)n1Cc1cccc2ccccc12 | 86.1 µM (inactive) | 98.2 µM (inactive) | > 100 µM (inactive) | 31.3 µM (inactive) | > 100 µM (inactive) | > 100 µM (inactive) | > 100 µM (inactive) | > 100 µM (inactive) | > 100 µM (inactive) | > 100 µM (inactive) | > 100 µM (inactive) | > 100 µM (inactive) | > 100 µM (inactive) | > 100 µM (inactive) | > 100 µM (inactive) | > 100 µM (inactive) | > 100 µM (inactive) | – | – | – |
| CN(C)c1ccc(/N=N\c2cccc3ncccc23)cc1 | 36.9 µM (inactive) | 33.6 µM (inactive) | > 100 µM (inactive) | 36.6 µM (inactive) | < 0.0159 µM (active) | 64 µM (inactive) | – | – | 44.7 µM (inactive) | > 80.4 µM (inactive) | 75.7 µM (inactive) | > 94 µM (inactive) | > 90.8 µM (inactive) | 20.8 µM (inactive) | 62.2 µM (inactive) | > 74.1 µM (inactive) | > 58.1 µM (inactive) | 51.3 µM (inactive) | 0.302 µM (active) | 12.8 µM (inactive) |
| CCN1C(=O)CS/C1=N\NC(=O)CSc1nc2ccccc2c(=O)n1CC | – | > 100 µM (inactive) | > 100 µM (inactive) | > 100 µM (inactive) | > 100 µM (inactive) | > 100 µM (inactive) | > 100 µM (inactive) | > 100 µM (inactive) | > 100 µM (inactive) | > 100 µM (inactive) | > 100 µM (inactive) | > 100 µM (inactive) | > 100 µM (inactive) | > 100 µM (inactive) | > 100 µM (inactive) | > 100 µM (inactive) | > 100 µM (inactive) | > 100 µM (inactive) | > 100 µM (inactive) | 96.4 µM (inactive) |
| Cc1cc(C)c(S(=O)(=O)N(CCCCCCN)OCCCON(CCCCCCN)S(=O)(=O)c2c(C)cc(C)cc2C)c(C)c1 | 1.46 µM (inactive) | 1.9 µM (inactive) | 1.79 µM (inactive) | 1.79 µM (inactive) | 1.65 µM (inactive) | 1.89 µM (inactive) | 1.7 µM (inactive) | 1.4 µM (inactive) | 2.11 µM (inactive) | 1.9 µM (inactive) | 1.37 µM (inactive) | 1.78 µM (inactive) | 1.45 µM (inactive) | 1.73 µM (inactive) | 2.15 µM (inactive) | 1.7 µM (inactive) | 1.62 µM (inactive) | 2.29 µM (inactive) | – | 2.15 µM (inactive) |
| CC1=NN(c2cccc(Cl)c2)C(=N/c2nc3ccccc3s2)/C1=C\C=C\c1ccccc1 | – | 34.2 µM (inactive) | 36.1 µM (inactive) | – | 20 µM (inactive) | – | 24.7 µM (inactive) | 46.5 µM (inactive) | 24.3 µM (inactive) | 41.4 µM (inactive) | 50.4 µM (inactive) | 35.8 µM (inactive) | – | 28.8 µM (inactive) | > 100 µM (inactive) | – | – | 1.77 µM (inactive) | – | 13.8 µM (inactive) |
| N#Cc1nnn(-c2ccccc2)c1O | – | > 100 µM (inactive) | > 100 µM (inactive) | > 100 µM (inactive) | > 100 µM (inactive) | > 100 µM (inactive) | > 100 µM (inactive) | > 100 µM (inactive) | > 100 µM (inactive) | > 100 µM (inactive) | > 100 µM (inactive) | > 100 µM (inactive) | > 100 µM (inactive) | > 100 µM (inactive) | > 100 µM (inactive) | > 100 µM (inactive) | > 100 µM (inactive) | – | > 100 µM (inactive) | > 100 µM (inactive) |
| CC(=O)OCC1OC(NC(=S)CCSc2nc3ccccc3c(=O)n2-c2ccccc2)C(OC(C)=O)C(OC(C)=O)C1OC(C)=O (centres undefined) | 16.9 µM (inactive) | 36.5 µM (inactive) | > 100 µM (inactive) | 22 µM (inactive) | 2.34 µM (inactive) | 40.1 µM (inactive) | – | 22.6 µM (inactive) | 24.8 µM (inactive) | 63.2 µM (inactive) | > 100 µM (inactive) | > 100 µM (inactive) | > 100 µM (inactive) | 25.6 µM (inactive) | 41.2 µM (inactive) | 38.1 µM (inactive) | 34 µM (inactive) | 27.2 µM (inactive) | 39.3 µM (inactive) | 29.2 µM (inactive) |
| Nc1nc(N)nc(CCCCc2nc(N)nc(N)n2)n1 | > 100 µM (inactive) | > 100 µM (inactive) | > 100 µM (inactive) | > 100 µM (inactive) | > 100 µM (inactive) | > 100 µM (inactive) | > 100 µM (inactive) | > 100 µM (inactive) | > 100 µM (inactive) | > 100 µM (inactive) | > 100 µM (inactive) | > 100 µM (inactive) | > 100 µM (inactive) | > 100 µM (inactive) | > 100 µM (inactive) | > 100 µM (inactive) | > 100 µM (inactive) | > 100 µM (inactive) | – | > 100 µM (inactive) |
| N#CCC(=O)N/N=C\C(O)C(O)C(O)C(O)CO (centres undefined) | – | > 100 µM (inactive) | > 100 µM (inactive) | > 100 µM (inactive) | > 100 µM (inactive) | – | > 100 µM (inactive) | > 100 µM (inactive) | > 100 µM (inactive) | > 100 µM (inactive) | > 100 µM (inactive) | > 100 µM (inactive) | > 100 µM (inactive) | > 100 µM (inactive) | > 100 µM (inactive) | – | > 100 µM (inactive) | > 100 µM (inactive) | > 100 µM (inactive) | > 100 µM (inactive) |
| Cc1cc(NS(=O)(=O)c2ccc(Nc3c4ccccc4nc4ccc(C(=O)Nc5ccc(S(=O)(=O)N=C(N)N)cc5)cc34)cc2)no1 | > 100 µM (inactive) | > 100 µM (inactive) | > 100 µM (inactive) | > 100 µM (inactive) | > 100 µM (inactive) | > 100 µM (inactive) | – | > 100 µM (inactive) | > 100 µM (inactive) | > 100 µM (inactive) | > 100 µM (inactive) | > 100 µM (inactive) | > 100 µM (inactive) | > 100 µM (inactive) | > 100 µM (inactive) | > 100 µM (inactive) | > 100 µM (inactive) | 66.1 µM (inactive) | > 100 µM (inactive) | > 100 µM (inactive) |
| COc1cc2c3c(n(Cc4ccccc4)c(=O)c2cc1OC)-c1ccccc1C3=O | > 100 µM (inactive) | > 100 µM (inactive) | > 100 µM (inactive) | 32.3 µM (inactive) | > 100 µM (inactive) | > 100 µM (inactive) | – | > 100 µM (inactive) | 63.7 µM (inactive) | 93.5 µM (inactive) | > 100 µM (inactive) | 82.2 µM (inactive) | > 100 µM (inactive) | > 100 µM (inactive) | > 100 µM (inactive) | 64 µM (inactive) | > 100 µM (inactive) | 17.9 µM (inactive) | > 100 µM (inactive) | > 100 µM (inactive) |
| Cc1cc(C)c2c(n1)S(=O)(=O)N(CCCN1CCN(c3cccc(Cl)c3)CC1)C(C(=O)c1ccccc1)=C2O | 25.8 µM (inactive) | 33.7 µM (inactive) | 36.6 µM (inactive) | – | 40.3 µM (inactive) | 18.7 µM (inactive) | 28.8 µM (inactive) | 45 µM (inactive) | 65.8 µM (inactive) | 19.5 µM (inactive) | 36.7 µM (inactive) | 39 µM (inactive) | 64.3 µM (inactive) | 24.8 µM (inactive) | 31.8 µM (inactive) | 37.6 µM (inactive) | 30.2 µM (inactive) | 25.9 µM (inactive) | – | 31.6 µM (inactive) |
| O=C(c1ccco1)N(C(=O)N1CCCCC1)c1ccccc1 | – | > 100 µM (inactive) | > 100 µM (inactive) | – | > 100 µM (inactive) | > 100 µM (inactive) | > 100 µM (inactive) | > 100 µM (inactive) | > 100 µM (inactive) | > 100 µM (inactive) | > 100 µM (inactive) | > 100 µM (inactive) | 41.2 µM (inactive) | – | > 100 µM (inactive) | > 100 µM (inactive) | > 100 µM (inactive) | > 100 µM (inactive) | – | > 100 µM (inactive) |
| COC(=O)[C@@H]1CN(C(=O)c2ccccc2)C(=O)N1 | > 100 µM (inactive) | > 100 µM (inactive) | > 100 µM (inactive) | > 100 µM (inactive) | > 100 µM (inactive) | – | > 100 µM (inactive) | > 100 µM (inactive) | > 100 µM (inactive) | > 100 µM (inactive) | > 100 µM (inactive) | > 100 µM (inactive) | > 100 µM (inactive) | > 100 µM (inactive) | > 100 µM (inactive) | > 100 µM (inactive) | > 100 µM (inactive) | > 100 µM (inactive) | – | > 100 µM (inactive) |
| CC1(C)[C@@H](Cn2cnc3c(Cl)nc(N)nc32)CC[C@@]1(C)CO | > 100 µM (inactive) | > 100 µM (inactive) | – | > 100 µM (inactive) | – | 51.5 µM (inactive) | > 100 µM (inactive) | > 100 µM (inactive) | 19.7 µM (inactive) | > 100 µM (inactive) | > 100 µM (inactive) | 20.8 µM (inactive) | – | – | 42.4 µM (inactive) | > 100 µM (inactive) | 83.4 µM (inactive) | 31.6 µM (inactive) | 22.5 µM (inactive) | – |
